Reference: patent US8551997B2, “Structural-based inhibitors of the glutathione binding site in aldose reductase, methods of screening therefor and methods of use” (The Board of Regents of the University of Texas System, priority 2004, dated 2013)

Assays:
aldose reductase = aldose reductase (Homo sapiens, UniProt P15121); conditions: cited from earlier work
Caco-2 cells [1] = test: PGE2 assay in Caco-2 cells; format: cell-based, human; conditions: preincubation with inhibitor 30 min, BFGF or PDGF 24 h
Method: (§1) Caco-2 cells were plated in 6 well plates at a density of 2×10^5 cells/well. After 24 hours, the medium was replaced with fresh medium containing 0.1% serum with or without, sorbinil (20 μM) followed by treatment with either 10 ng/ml BFGF or PDGF, for another 24 h. HT29 cells were plated in 6 well plate at a density of 2×10^5 cells/well. After 24 hours, medium was replaced with serum-free medium with or without, sorbinil or zopolrestat (20 μM) followed by treatment with either EGF (5 ng/ml) or BFGF (10 ng/ml) for another 24 h. The medium from each cell lines was collected from each well and analyzed for PGE2 by using an Enzyme Immuno Assay kit according to the manufacturer's instructions (Cayman Chemical Co., Inc.).
(§2) Briefly, 50 μl of diluted standard/sample were pipetted into a pre-coated goat polyclonal anti-mouse IgG 96-well plate. Aliquots (50 μl) of a PGE2 monoclonal antibody and PGE2 acetylcholine esterase (AchE) conjugate, (PGE2 tracer) were added to each well and allowed to incubate at 4° C. for 24 h. After incubation, the wells were washed five times with wash buffer containing 0.05% Tween-20, followed by the addition of 200 μl of Ellman's reagent containing acetylthiocholine and 5,5′-dithio-bis-(2-nitrobenzoic acid). Samples were read after 60 min at 412 nm with an ELISA reader. In this procedure the intensity of yellow color, is proportional to the amount of PGE2 tracer bound to the well and is inversely proportional to the amount of free PGE2 present in the well during incubation.

rat VSMC cells = test: High glucose-induced TNF-a production in VSMC; format: cell-based; conditions: for high glucose-induced TNF-a secretion: preincubated 1 h, then 19.5 mM glucose, apocyanin 25 mM, calphostin C 0.2 mM, N-acetyl cysteine 10 mM, sorbinil or tolrestat 10 mM each, or AR antisense ablated
Method: Growth-arrested VSMC in 5.5 mM glucose (NG) were preincubated for 1 h without or with apocyanin (25 mM), D609 (100 mM), calphostin C (0.2 mM), N-acetyl cysteine (10 mM) and NF-kB inhibitor (18 mM) (FIG. 4A) and without or with sorbinil or tolrestat (10 mM each) (FIG. 4B) followed by the addition of glucose (19.5 mM) and incubation for the indicated times. AR antisense ablated VSMC were incubated with HG for the indicated times (FIG. 4C).
Growth-arrested VSMC in 5.5 mM glucose (NG) were preincubated for 1 h without or with apocyanin (25 mM), D609 (100 mM), calphostin C (0.2 mM), N-acetyl cysteine (10 mM) and NF-kB inhibitor (18 mM) respectively, followed by the addition of 19.5 mM glucose, after which the cells were incubated for 12 and 24 hrs.

A549 cells [2] = test: A549 cell proliferation, MTT assay; format: cell-based; conditions: Homo sapiens, 24 hrs
Method: A549 cells were grown to confluence in Ham's F12K medium containing 10% FBS and harvested, and plated at 5000 cells per well in a 96-well plate. After 24 hrs A549 cells were treated with or without AR inhibitor sorbinil or tolrestat with various concentrations for another 24 hrs. Cells incubated without AR inhibitors served as control. Cell viability was determined by and MTT assay.

A549 cells [3] = test: Western blot of cell cycle regulatory proteins in A549 cells; format: cell-based, human; conditions: various concentrations
Method: (§3) To examine expression of any of Cox-1, Cox-2, phospho-PKC-2, GAPDH, E2F1, Cyclin D1, Cyclin E, and iNOS proteins, Western blot analyses were carried by known methods (15). Equal amounts of protein from cell extracts were subjected to 12% SDS-PAGE followed by transfer of proteins to nitrocellulose filters, probing with the indicated antibodies, and the antigen-antibody complex was detected by enhanced chemiluminescence (Pierce, Piscataway, N.J., USA).

A549 cells [4] = test: Western blot of Cox-2 and iNOS in A549 cells; format: cell-based, human; conditions: concentration dependent
Method: as §3

Caco-2 cells [5] = test: Reactive oxygen species in Caco-2 cells (DCFH-DA); format: cell-based, human; conditions: 20 μM, FGF or PDGF 10 ng/ml 60 min
Method: Caco-2 cells were plated in a 24-well plate at a density of 1.5×10^4 cells/well in DMEM and then serum-starved at 60-70% confluence in the absence and presence of 20 μM sorbinil or tolrestat for overnight in phenol red-free DMEM supplemented with 0.1% FBS. Cells were then pre-incubated for 30 min with the ROS-sensitive fluorophore 2′,7′-dichlorofluorescein diacetate (DCFH-DA), which is taken up and oxidized to the fluorescent dichlorofluorescein by intracellular ROS. After incubation with DCFH-DA, the cells were exposed to FGF or PDGF 10 ng/ml for 60 min and fluorescence was measured with a CytoFluorII fluorescence plate reader (PerSeptive Biosystems, Inc., Framingham, Mass.) at excitation of 485 nm and emission of 528 nm.

A549 xenografts = A549 xenografts in nude mice; format: in vivo, mouse
Method: The levels of ROS in sections of A549 xenografts was determined using dihydroethidium (Het; Molecular Probes, Eugene, Oreg.). The Het dye gives red fluorescence when oxidized to EtBr in the presence of ROS such as O2. Serial sections ([…]) of para-formaldehyde fixed xenografts were deparafinized and rehydrated and incubated with Het dye (5 μM in PBS) for 30 min at 37° C. followed by acquisition of images using a fluorescence microscope 200× magnification.
Nine mice (20 weeks old) were divided into three groups of three animals and were treated with PBS, scrambled AR siRNA, and AR-siRNA, respectively. All nine animals were injected with 2×10^6 A549 human lung carcinoma cell suspensions in 100 μl PBS s.c. Animals were examined daily for signs of tumor growth. Treatment was given two times (day 1 and day 14) when the tumor surface area approximately 45 mm^2 (day 25). Treatment consisted of 200 μg AR-siRNA in 100 μl PBS. Control groups were treated with 200 μg/100 μl scrambled siRNA or diluent (PBS) alone. For the determination of effect of AR inhibitor, animals were fed with zopolrestat (40 mg/kg body weight) in the diet. Tumors were measured in two dimensions using calipers.
Serial sections ([…]) of para-formaldehyde fixed xenografts were deparafenized and rehydrated and incubated with peptide specific AR antibodies and developed using DakoCytomation LSAB+System-HRP kit. The intensity of staining was observed under light microscope with 200× magnification.
The results obtained from in vitro studies were confirmed by in vivo nude mice model bearing human lung carcinoma A549 cells. A549 (2×10^6) cells were implanted s.c. and allowed to grow in nu/nu nude mice to ˜45 mm^2 over a period of 25 days. Animals were grouped into control and experimental groups. Control group were fed with regular diet and experimental group was fed with AR inhibitor, Zopolrestat (after 10 days dose increased from 20 mg to 40 mg/kg/body weight) for until end of the experiment. Tumor growth was measured every two days using calipers. The photographs of animals were taken at days 1, 14, and 37 (FIGS. 20A-20B).

HT29 cells [6] = test: HT29 cell proliferation, MTT assay; format: cell-based; conditions: inhibitor alone
Method: HT29 cells were grown to confluence in McCoy's medium and harvested and plated 2,500 per well in a 96-well plate. Subconfluent cells were growth arrested in 0.1% FBS with or without AR inhibitor sorbinil or zopolrestat (20 μM). After 24 hours, EGF (5 ng/ml) or BFGF (10 ng/ml) was added to the medium and the cells were incubated for another 24 hours. Cells incubated with the AR inhibitors alone served as control. Cell viability was determined by an MTT assay.

HT29 cells [7] = test: PGE2 assay in HT29 cells; format: cell-based; conditions: inhibitor alone
Method: as §1
as §2, with “In this procedure the intensity of yellow color, is proportional to the amount of PGE2 tracer bound to the well and is inversely proportional to the amount of free PGE2 present in the well during incubation.” left out

SW480 xenografts = test system: SW480 xenografts; set-up: tumor progression: dose or concentration left out as unconfirmed
Method: Nine 20-weeks-old athymic nu/nu nude mice were divided into three groups of 3 animals (Group 1: treated with PBS; Group 2: treated with scrambled siRNA and Group 3: treated with aldose-reductase siRNA). An aliquot of 2×10^6 SW480 human colon adenocarcinoma cell suspensions in 100 μl PBS was injected subcutaneously into one flank of each nu/nu nude mouse. Animals were examined daily for signs of tumor growth. Treatment was administered when the tumor surface area exceeded 45 mm^2, i.e., day 25. Treatment consisted of 200 mg aldose-reductase siRNA in 100 ml PBS administered intraperitoneally. Control groups were treated with 200 mg/100 ml scrambled siRNA, or diluent (PBS) alone. Mice were treated on days 1 and 14. Tumors were measured in two dimensions using calipers over 40 days.

RAW264.7 macrophages = test: LPS- and lipid aldehyde-induced signaling in RAW264.7 macrophages; format: cell-based
Method: At the indicated times, cells were harvested for measurement of HNE (FIG. 5A), protein-HNE adducts (FIG. 5B), NF-kB (FIG. 5C), and TNF-a and IL-6 (FIG. 5D) as described in the methods. Cells were growth arrested as described above or transfected with control or AR siRNA oligonucleotides, incubated with GS-HNE-ester, or GS-DHN-ester (1 mM), and harvested for determination of NF-kB (FIG. 5E), membrane-bound total PKC (FIG. 5F).
To determine if GS-DHN serves as a cellular sensor of ROS-induced insults, its effects on phosphorylation events upstream of IKK/NF-κB activation in RAW264.7 macrophages was examined.

[8] = compared to control and scrambled siRNA

Which results are given for `N[C@@H](CCC(=O)N[C@@H](CSC(CC(=O)O)C(=O)O)C(=O)NCC(=O)O)C(=O)O` (stereo partly drawn) [DCEG, S-(1,2-dicarboxyethyl) glutathione, γ-glutamyl-S-(1,2-dicarboxyethyl)cysteinylglycine]?
inhibition of AR-catalyzed reaction of glutathionyl-propanal (aldose reductase): competitive inhibitor; inhibition of aldehyde reduction by aldose reductase (aldose reductase): competitive inhibitor

For `CC(=O)N[C@@H](CS)C(=O)O` [N-acetylcysteine], which “growth factor-induced production of PGE2” value (Caco-2 cells [1]) is on record?
The value was “attenuated”.

For `COc1ccc2c(C(=S)N(C)CC(=O)O)cccc2c1C(F)(F)F` [tolrestat], which “basal levels of TNF-a” value (rat VSMC cells; media containing 5.5 mM glucose, mannitol, or 3-OMG) is on record?
Its value is “did not affect”.

And the “high glucose-induced TNF-a secretion” value (rat VSMC cells)?
Its value is “prevents”.

And the inhibition at 100 µM (A549 cells [2])?
The inhibition at 100 µM was > 75%.

What about the “E2F-1, Cyclin E and Cyclin D1 expression” value (A549 cells [3]) of the same compound?
Its value is “significant inhibition”.

And the “Cox-2 and iNOS expression” value (A549 cells [4])?
Its value is “inhibit”.

And the “growth factor-induced increase in ROS” value (Caco-2 cells [5])?
Its value is “inhibited”.

What does the source list for `O=C(O)Cc1nn(Cc2nc3cc(C(F)(F)F)ccc3s2)c(=O)c2ccccc12` [zopolrestat, 3,4-dihydro-4-oxo-3-[[5-(trifluoromethyl)-2-benzothiazolyl]methyl]-1-phthalazineacetic acid]?
normal weight gain of animals (A549 xenografts; zopolrestat in the diet): None of the treatments interfered; tumor progression (A549 xenografts; zopolrestat in the diet, 20 mg to 40 mg/kg/body weight): completely arrested; HT29 cells proliferation (HT29 cells [6]): did not cause any effect; constitutive levels of PGE2 (HT29 cells [7]): did not inhibit

Which results are given for “AR-siRNA: AR-siRNA (5′-AATCGGTGTCTCCAACTTCAA-3′; SEQ ID NO: 1) synthesized by Dharmacon Research (chemistry not given here)”?
AR protein expression in xenograft sections (A549 xenografts; [8]): significantly prevention; ROS production in xenograft sections (HEt red fluorescence) (A549 xenografts; [8]): significantly reduced; progression of tumor growth (A549 xenografts; i.p. 200 μg AR-siRNA in 100 μl PBS on days 1 and 14): inhibited completely; tumor progression (SW480 xenografts; intraperitoneally, days 1 and 14): completely arrested; normal weight gain of animals (SW480 xenografts; mouse, in vivo): without interfering; ability of GS-DHN to activate NF-κB (RAW264.7 macrophages): had no effect; effects of HNE/GS-HNE on IKK-a/b phosphorylation and NF-kB translocation (RAW264.7 macrophages): significantly blunted

For calphostin C, which “high glucose-induced TNF-a secretion” value (rat VSMC cells) is on record?
The value was “markedly decreased”.

And the “growth factor-induced production of PGE2” value (Caco-2 cells [1])?
Its value is “attenuated”.

Which “increase of protein kinase C (PKC) activity after GS-DHN challenge” value (RAW264.7 macrophages; within 60 min) does the source give for “glutathionyl-1,4-dihydroxynonene [GS-DHN]” here?
Its value is ~2.5 fold.
